Laboratory results: ChEMBL document CHEMBL1201862, “PubChem BioAssay data set” (2004)
The source made the active and inactive calls.

Tests used:
[1] = molecular target: Cytochrome P450 2C9 (Homo sapiens, UniProt P11712)
[2] = molecular target: Cytochrome P450 2C19 (Homo sapiens, UniProt P33261); assay: Cytochrome panel assay with activity outcomes. Panel member name: p450-cyp2c19 Compounds with AC50 equal or less than 10 uM are considered active; type: functional
[3] = molecular target: T1, Cytochrome P450 1A2 (Homo sapiens, UniProt P05177);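 also: PubChem cytochrome P450 panel assay, CYP1A2 panel member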
T1 sequence (P05177 whole entry): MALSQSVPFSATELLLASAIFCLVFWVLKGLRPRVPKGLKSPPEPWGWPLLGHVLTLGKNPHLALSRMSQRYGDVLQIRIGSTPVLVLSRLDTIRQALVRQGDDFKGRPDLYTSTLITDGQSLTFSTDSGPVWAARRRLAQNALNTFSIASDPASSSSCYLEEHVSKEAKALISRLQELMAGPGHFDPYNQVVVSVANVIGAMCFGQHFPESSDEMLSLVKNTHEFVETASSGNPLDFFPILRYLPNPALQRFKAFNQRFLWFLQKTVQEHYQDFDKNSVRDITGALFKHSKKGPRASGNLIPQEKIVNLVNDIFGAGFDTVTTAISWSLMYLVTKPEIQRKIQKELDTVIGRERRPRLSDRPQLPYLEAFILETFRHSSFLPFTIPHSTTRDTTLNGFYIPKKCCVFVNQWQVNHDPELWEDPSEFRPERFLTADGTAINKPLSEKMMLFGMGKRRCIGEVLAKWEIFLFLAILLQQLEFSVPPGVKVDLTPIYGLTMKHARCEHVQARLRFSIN

[4] = molecular target: Cytochrome P450 3A4 (Homo sapiens, UniProt P08684);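 also: CYP3A4 tested as one member of a cytochrome P450 panel screen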
[5] = Luminescence Cell-Based Dose Retest to Confirm Inhibitors of Cancer Stem Cells. [Related pubchem assays (depositor defined):AID2717, AID2721]; type: functional; settings: Homo sapiens
[6] = molecular target: T2, Nucleotide-binding oligomerization domain-containing protein 1 (Homo sapiens, UniProt Q9Y239); assay: NOD1 signaling inhibitors, SAR follow-up, revised (AID 2333); type: functional
T2 sequence (Q9Y239 whole entry): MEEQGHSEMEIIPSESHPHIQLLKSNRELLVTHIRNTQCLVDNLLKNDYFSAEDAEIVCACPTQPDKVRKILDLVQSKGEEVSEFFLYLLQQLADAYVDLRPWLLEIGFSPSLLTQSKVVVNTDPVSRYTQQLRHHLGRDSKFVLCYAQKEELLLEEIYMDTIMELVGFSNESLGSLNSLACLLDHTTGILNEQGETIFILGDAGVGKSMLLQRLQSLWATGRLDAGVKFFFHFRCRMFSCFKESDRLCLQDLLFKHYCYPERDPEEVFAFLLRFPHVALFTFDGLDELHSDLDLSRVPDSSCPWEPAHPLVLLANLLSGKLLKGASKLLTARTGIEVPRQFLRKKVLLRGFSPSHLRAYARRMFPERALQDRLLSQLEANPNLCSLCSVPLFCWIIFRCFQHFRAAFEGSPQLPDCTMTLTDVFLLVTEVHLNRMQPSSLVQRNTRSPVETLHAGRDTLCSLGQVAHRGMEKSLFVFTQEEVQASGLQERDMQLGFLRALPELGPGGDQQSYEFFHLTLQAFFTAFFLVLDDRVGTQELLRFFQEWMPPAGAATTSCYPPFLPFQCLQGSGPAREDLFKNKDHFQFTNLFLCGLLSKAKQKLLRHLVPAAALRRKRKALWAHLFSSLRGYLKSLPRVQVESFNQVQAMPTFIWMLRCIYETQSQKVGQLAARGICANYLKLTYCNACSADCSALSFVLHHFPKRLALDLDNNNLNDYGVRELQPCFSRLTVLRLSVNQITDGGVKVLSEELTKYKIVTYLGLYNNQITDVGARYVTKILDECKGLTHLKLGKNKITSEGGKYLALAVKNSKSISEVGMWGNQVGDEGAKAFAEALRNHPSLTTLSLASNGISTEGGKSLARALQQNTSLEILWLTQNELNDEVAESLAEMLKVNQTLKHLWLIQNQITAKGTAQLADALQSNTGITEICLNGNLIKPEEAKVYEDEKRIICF

[7] = test system: HEK293; assay: cells; settings: Homo sapiens;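 also: cells exposed to compound for 14 hours overnight before viability readout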
[8] = molecular target: Tumor necrosis factor (Homo sapiens, UniProt P01375); assay: TNFa-triggered NF-kB activation inhibitors, SAR follow-up, cell-based, revised (AID 2337); type: functional
[9] = molecular target: T3, Microphthalmia-associated transcription factor (Homo sapiens, UniProt O75030); assay: TRPM1 promoter luciferase signal decrease, dose response, MITF inhibitor project, cell-based, SK-MEL-5, cherry-picked, set 3 (AID 493073); type: functional
T3 sequence (O75030 whole entry): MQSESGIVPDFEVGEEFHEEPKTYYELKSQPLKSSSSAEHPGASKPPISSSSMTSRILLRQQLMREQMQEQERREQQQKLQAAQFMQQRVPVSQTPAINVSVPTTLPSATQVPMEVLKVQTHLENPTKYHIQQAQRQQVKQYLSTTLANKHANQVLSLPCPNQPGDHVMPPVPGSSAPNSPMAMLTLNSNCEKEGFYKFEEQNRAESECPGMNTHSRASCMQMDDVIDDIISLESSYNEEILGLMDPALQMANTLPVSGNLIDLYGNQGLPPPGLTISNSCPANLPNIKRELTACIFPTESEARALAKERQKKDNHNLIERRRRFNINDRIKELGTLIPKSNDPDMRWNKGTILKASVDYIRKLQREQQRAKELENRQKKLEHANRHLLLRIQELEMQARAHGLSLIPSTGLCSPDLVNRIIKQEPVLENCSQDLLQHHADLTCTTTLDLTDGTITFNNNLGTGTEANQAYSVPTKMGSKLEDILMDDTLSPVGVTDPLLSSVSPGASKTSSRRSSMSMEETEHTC

[10] = test system: BJ; assay: cells; type: functional, cell-based; settings: Homo sapiens
[11] = molecular target: T4, Protein skinhead-1 (Caenorhabditis elegans, UniProt P34707); type: functional
T4 sequence (P34707 whole entry): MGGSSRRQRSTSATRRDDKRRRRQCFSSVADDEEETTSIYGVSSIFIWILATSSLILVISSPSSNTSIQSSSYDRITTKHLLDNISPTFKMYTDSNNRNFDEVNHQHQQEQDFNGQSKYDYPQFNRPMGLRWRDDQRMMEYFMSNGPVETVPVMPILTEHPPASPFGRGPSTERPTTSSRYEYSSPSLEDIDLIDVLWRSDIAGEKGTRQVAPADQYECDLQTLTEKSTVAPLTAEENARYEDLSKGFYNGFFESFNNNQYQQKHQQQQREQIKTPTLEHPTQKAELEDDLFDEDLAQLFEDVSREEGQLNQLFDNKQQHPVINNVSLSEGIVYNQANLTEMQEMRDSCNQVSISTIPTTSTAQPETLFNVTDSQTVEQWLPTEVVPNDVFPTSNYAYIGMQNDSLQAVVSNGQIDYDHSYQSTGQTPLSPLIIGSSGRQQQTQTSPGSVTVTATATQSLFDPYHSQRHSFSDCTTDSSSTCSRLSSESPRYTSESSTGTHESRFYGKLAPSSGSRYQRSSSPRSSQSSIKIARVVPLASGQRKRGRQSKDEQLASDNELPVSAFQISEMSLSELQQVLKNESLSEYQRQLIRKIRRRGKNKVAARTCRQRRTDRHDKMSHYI

[12] = test system: H4; assay: Luminescence Cell-Based Dose Response HTS to Identify Activators of 5'UTR Stem-Loop Driven Prion Protein mRNA Translation in H4 Neuroglioblastoma Cells. [Related pubchem assays: 1829 (Project Summary), 1814 (Primary HTS)]; type: functional; settings: Homo sapiens
[13] = Luminescence Cell-Based Dose Confirmation HTS to Identify Activators of 5'UTR Stem-Loop Driven Alpha-Synuclein mRNA Translation in H4 Neuroglioblastoma Cells. [Related pubchem assays: 1829 (Project Summary), 1814 (Primary HTS)]; type: functional
[14] = cytotoxicity toward DRD oncogenic fibroblasts, dose response, cell-based, non-viral oncogenic, luminescence (AID 1934); type: functional; settings: Homo sapiens
[15] = test system: BJ; assay: cytotoxicity toward BJ-TERT-LT-ST fibroblasts, dose response, cell-based, RAS-independent, luminescence (AID 1935); type: functional; settings: Homo sapiens;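 also: BJ fibroblasts immortalized with TERT plus LT and ST oncogenes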
[16] = test system: BJ; assay: cytotoxicity toward BJ-TERT fibroblasts, dose response, cell-based, RAS-independent, luminescence (AID 1933); type: functional; settings: Homo sapiens
[17] = Luminescence Cell-Based Dose Response HTS to Identify Activators of Luciferase Translation or Activity in H4 […] Cells. [Related pubchem assays: 1829 (Project Summary), 1814 (Primary HTS)]; type: functional
[18] = molecular target: Luciferin 4-monooxygenase (Photinus pyralis, UniProt P08659); assay: firefly luciferase enzyme inhibitors, dose response, biochemical, luminescence (AID 1891)
[19] = molecular target: T5, Heat shock factor protein 1 (Mus musculus, UniProt P38532); assay: HSF1 potentiators in luciferase reporter cells, confirmation, cell-based, NIH3T3, luminescence, dose retest (AID 435004); type: functional;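 also: stress induced by proteasome inhibitor MG132 added 30 min after compound; luciferase reporter driven by HSF1 response element in NIH3T3 cells; actives raise luminescence as potentiators of the MG132 stress response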
T5 sequence (P38532 whole entry): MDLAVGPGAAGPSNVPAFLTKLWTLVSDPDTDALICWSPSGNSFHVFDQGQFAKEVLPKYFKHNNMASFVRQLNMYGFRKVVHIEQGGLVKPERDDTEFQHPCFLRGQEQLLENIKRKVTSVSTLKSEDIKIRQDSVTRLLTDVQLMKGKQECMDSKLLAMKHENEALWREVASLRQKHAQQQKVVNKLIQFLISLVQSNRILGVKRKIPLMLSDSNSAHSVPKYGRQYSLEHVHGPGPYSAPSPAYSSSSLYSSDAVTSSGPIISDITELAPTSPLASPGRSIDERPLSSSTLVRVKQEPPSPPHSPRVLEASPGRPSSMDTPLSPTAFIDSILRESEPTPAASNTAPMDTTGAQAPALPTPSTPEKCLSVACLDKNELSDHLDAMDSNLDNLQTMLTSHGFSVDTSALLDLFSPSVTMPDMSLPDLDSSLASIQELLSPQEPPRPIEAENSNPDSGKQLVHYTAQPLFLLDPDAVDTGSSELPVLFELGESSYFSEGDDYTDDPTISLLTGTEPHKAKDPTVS

[20] = Luminescence Cell-Based Dose Confirmation HTS to Identify Inhibitors of Platelet Dense Granule Release. [Related pubchem assays: 1663 (Primary HTS), 1678 (Summary of Project)]; type: functional
[21] = molecular target: Genome polyprotein (dengue virus type 2, UniProt P29990); assay: Dengue-2 NS5 methyltransferase inhibitors, primary screen, biochemical, confirmation dose response (AID 588689); type: functional
Chain of Genome polyprotein (P29990 2492-3391 limits assumed): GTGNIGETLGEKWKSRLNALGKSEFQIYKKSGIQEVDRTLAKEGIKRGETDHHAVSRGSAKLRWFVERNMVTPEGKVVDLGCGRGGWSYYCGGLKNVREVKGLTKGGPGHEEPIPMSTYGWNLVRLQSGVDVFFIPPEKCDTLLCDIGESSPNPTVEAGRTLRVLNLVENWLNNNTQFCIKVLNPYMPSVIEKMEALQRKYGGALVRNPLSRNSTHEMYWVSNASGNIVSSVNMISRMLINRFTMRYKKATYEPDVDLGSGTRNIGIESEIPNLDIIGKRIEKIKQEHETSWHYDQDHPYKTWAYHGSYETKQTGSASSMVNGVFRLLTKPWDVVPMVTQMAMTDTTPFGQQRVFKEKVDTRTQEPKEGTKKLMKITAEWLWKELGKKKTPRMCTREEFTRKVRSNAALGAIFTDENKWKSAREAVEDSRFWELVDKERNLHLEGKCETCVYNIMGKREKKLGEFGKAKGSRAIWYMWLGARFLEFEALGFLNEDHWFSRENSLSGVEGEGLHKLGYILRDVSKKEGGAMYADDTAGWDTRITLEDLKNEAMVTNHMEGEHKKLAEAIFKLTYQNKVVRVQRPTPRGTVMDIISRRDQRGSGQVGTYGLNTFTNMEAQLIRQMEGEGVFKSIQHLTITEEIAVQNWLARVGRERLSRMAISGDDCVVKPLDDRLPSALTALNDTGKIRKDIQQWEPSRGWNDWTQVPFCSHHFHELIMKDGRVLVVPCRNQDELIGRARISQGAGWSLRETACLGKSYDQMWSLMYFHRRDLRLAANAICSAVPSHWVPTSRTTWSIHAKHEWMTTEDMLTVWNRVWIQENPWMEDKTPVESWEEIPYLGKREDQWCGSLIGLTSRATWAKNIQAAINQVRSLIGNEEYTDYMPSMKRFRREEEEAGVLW

Chain of Cytochrome P450 2C9 (P11712 whole entry): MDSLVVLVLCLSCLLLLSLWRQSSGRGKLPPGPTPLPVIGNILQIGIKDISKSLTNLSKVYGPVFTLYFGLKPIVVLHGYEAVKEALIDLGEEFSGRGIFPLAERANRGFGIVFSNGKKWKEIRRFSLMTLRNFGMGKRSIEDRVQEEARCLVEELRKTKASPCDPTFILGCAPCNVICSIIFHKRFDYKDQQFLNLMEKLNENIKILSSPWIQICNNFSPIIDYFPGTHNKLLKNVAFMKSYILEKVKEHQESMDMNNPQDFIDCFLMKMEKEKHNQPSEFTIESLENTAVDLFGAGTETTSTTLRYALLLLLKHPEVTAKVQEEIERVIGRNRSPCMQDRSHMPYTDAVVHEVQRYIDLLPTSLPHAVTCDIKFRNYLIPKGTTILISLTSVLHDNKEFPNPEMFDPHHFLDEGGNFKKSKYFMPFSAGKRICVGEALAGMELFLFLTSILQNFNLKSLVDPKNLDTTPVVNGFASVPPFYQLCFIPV
Chain of Cytochrome P450 2C19 (P33261 whole entry): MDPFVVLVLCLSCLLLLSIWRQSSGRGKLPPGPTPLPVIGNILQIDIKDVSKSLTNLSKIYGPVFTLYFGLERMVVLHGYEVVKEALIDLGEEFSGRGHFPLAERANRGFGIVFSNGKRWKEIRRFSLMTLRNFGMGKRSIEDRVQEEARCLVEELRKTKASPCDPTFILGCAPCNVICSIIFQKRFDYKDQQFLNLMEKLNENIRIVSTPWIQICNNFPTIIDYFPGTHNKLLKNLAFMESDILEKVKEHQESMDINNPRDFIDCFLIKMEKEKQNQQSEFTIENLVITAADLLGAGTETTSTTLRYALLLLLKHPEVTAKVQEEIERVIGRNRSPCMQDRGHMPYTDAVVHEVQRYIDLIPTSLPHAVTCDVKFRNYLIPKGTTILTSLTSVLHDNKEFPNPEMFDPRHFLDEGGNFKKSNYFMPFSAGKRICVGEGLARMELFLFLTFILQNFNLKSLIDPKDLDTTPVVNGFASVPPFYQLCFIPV
Chain of Tumor necrosis factor (P01375 whole entry): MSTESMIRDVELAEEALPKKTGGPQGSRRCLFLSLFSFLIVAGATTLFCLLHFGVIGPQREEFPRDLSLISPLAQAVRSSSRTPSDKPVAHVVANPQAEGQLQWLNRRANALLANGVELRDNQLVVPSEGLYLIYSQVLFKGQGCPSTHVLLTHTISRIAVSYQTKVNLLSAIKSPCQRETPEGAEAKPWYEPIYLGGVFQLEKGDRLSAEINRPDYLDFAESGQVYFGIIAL
Chain of Cytochrome P450 3A4 (P08684 whole entry): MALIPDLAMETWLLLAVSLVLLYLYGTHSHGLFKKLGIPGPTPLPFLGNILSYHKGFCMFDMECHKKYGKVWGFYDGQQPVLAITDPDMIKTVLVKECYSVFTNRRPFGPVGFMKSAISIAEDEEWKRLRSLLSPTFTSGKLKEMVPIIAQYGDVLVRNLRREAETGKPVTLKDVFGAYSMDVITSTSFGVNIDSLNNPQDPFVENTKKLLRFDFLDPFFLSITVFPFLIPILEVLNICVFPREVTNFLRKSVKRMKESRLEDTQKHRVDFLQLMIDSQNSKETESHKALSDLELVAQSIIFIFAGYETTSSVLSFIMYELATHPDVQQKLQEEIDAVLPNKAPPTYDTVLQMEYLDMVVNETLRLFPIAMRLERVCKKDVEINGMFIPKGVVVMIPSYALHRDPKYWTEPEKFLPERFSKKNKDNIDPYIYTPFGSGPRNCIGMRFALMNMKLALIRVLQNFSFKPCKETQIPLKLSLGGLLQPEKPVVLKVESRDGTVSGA
Chain of Luciferin 4-monooxygenase (P08659 whole entry): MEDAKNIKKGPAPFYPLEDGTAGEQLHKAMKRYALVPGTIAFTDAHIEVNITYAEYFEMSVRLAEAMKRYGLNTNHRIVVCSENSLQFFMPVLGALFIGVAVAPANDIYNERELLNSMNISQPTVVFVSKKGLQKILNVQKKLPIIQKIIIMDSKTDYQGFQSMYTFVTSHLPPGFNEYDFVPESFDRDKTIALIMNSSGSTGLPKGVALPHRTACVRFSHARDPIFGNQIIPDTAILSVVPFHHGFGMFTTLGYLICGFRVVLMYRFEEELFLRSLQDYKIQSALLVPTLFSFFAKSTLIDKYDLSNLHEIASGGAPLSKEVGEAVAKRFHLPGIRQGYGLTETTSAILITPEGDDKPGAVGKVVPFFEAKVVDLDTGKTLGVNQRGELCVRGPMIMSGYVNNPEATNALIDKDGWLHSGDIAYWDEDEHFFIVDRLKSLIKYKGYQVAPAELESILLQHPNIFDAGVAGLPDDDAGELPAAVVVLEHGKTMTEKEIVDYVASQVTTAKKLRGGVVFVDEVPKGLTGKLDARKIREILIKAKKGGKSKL

Structure (SMILES): Cc1cc(C(=O)O)c(O)nc1C
- AC50 [1]: inconclusive
- AC50 [2]: inconclusive

Structure (SMILES): COc1ccc(OC)c2nc(O)c(CCNC(=O)C3CCCCC3)cc12
- AC50 [1]: inconclusive
- AC50 [3]: 20 µM (inconclusive)

Structure (SMILES): COc1cccc(/C=N/NC(=O)CSc2nnc(C)n2-c2ccccc2)c1O
- AC50 [4]: 4.47 µM (inconclusive)
- AC50 [1]: inconclusive
- AC50 ([2]; read-out: AC50): 31.6 µM (inconclusive)
- AC50 [5]: 11.9 µM (active)
- AC50 [3]: 35.5 µM (inconclusive)

Structure (SMILES): N#Cc1cccc(NC(=O)CSc2nc3scc(-c4ccccc4)c3c(=O)[nH]2)c1
- IC50 [6]: > 20 µM (inactive)
- IC50 [7]: > 20 µM (inactive)
- IC50 [8]: > 20 µM (inactive)

Structure (SMILES): CSc1ccc(NC(=O)c2ccc(CN3CCc4ccccc43)cc2)cc1
- IC50 [6]: > 20 µM (inactive)
- IC50 [7]: > 20 µM (inactive)
- IC50 [8]: > 20 µM (inactive)

Structure (SMILES): COc1cc2c(cc1OC)C(c1ccccc1)N(C(=O)CCl)CC2 (stereo not given)
- AC50 [9]: 5.36 µM (active)
- EC50 [10]: 7.81 µM (inconclusive)
- IC50 [11]: > 100 µM (inactive)
- EC50 [12]: > 120 µM (not active)
- EC50 [13]: > 120 µM (not active)
- EC50 [14]: 8.09 µM (active)
- EC50 [15]: 4.74 µM (active)
- EC50 [16]: 5.08 µM (inconclusive)
- EC50 [17]: > 120 µM (not active)

Structure (SMILES): CC1(C)CC(=O)C=C(NC2=CC3OC(c4ccccc4)OCC3OC2=O)C1 (stereo not given)
- EC50 [18]: > 112 µM (not active)
- EC50 [19]: 6.65 µM (inconclusive)
- AC50 [9]: 7.71 µM (active)
- EC50 [20]: 14.8 µM (active)
- IC50 [21]: > 100 µM (active)

Structure (SMILES): NS(=O)(=O)c1cc(Cl)c(Cl)c(S(N)(=O)=O)c1 [DICHLORPHENAMIDE]
- AC50 [1]: inconclusive
